Earlier results in patent publication US20040024042A1, “COX2 inhibition in the prevention and treatment of autosomal dominant polycystic kidney disease” (Vanderbilt University, priority 2002, published 2004).

Columns and labels:
[1] = system: PKD in animal models
[2] = system: albumin and alpha1-acid glycoprotein; conditions: within the clinical dose range
[3] = biological target: Cytochrome P450 2C9 (Homo sapiens, UniProt P11712)
[4] = system: warfarin metabolism; conditions: in vivo
[5] = system: mouse models of FAP; conditions: mice treated with COX2 inhibitor
[6] = not given; remark: listed apart in the source
[7] = system: Cytochrome P450 3A4
[8] = not given; remark: listed apart in the source

Sequence of Cytochrome P450 2C9 (P11712 whole entry): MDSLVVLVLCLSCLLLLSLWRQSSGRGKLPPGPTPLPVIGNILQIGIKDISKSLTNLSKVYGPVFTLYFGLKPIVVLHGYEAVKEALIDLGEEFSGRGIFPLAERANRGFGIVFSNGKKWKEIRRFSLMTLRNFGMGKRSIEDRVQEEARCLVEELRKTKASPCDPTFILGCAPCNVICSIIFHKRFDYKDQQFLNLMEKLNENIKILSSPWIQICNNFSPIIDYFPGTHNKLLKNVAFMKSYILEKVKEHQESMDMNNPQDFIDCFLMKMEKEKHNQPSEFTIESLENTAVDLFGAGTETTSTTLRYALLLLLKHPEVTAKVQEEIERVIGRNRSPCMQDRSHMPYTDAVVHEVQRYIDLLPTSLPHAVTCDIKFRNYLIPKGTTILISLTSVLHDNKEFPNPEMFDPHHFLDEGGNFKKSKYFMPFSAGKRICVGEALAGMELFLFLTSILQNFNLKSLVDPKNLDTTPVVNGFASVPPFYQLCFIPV

SMILES: CC(=O)O[C@H]1C(=O)[C@@]2(C)[C@H]([C@H](OC(=O)c3ccccc3)[C@]3(O)C[C@H](OC(=O)[C@H](O)[C@@H](NC(=O)c4ccccc4)c4ccccc4)C(C)=C1C3(C)C)[C@]1(OC(C)=O)CO[C@@H]1C[C@@H]2O [Taxol]
- Progression of PKD [1]: slow progression of PKD

SMILES: Cc1ccc(-c2cc(C(F)(F)F)nn2-c2ccc(S(N)(=O)=O)cc2)cc1 [celecoxib, 4-[5-(4-methyphenyl)-3-(trifluoromethyl)-1H-pyrazol-1-yl] benzenesulfonamide]
- Protein binding [2]: highly protein bound
- Time of peak plasma levels (after an oral dose): roughly 3 hours
- Effect of antacids on plasma concentrations (aluminum or magnesium containing antacids): decrease in plasma concentrations
- Effective half-life (fasted conditions): roughly 11 hours
- Dose excreted in feces (following a single dose): 57%
- Dose excreted in the urine (following a single dose): 27%
- Delay of plasma levels with food (taken with a high fat meal): 1 to 2 h
- Increase in total absorption with food (taken with a high fat meal): 10-20%
- Major metabolizing enzyme [3]: Cytochrome P450 2C9

SMILES: CS(=O)(=O)c1ccc(C2=C(c3ccccc3)C(=O)OC2)cc1 [rofecoxib]
- Increase of INR with warfarin [4]: about 10%
- Polyp formation [5]: marked reduction in polyp formation
- Crossing of the placenta and the blood-brain barrier ([6]; animal studies): able to cross the placenta and the blood-brain barrier
- Excretion in milk ([6]; lactating animals): excreted in the milk of lactating animals
- Induction of the 3A4 isoform ([7]; in vivo): mild inducer
- Substrate of the P450 system ([7]; in vivo): not a substrate for the P450 system
- Reduction of the AUC of midazolam ([7]; rofecoxib 25 mg daily): 30%
- Time to steady state level ([8]; 25 mg qday): 4 days
- Increase of AUC in moderate hepatic insufficiency ([8]; Child-Pugh score 7-9): 69%
- Peak plasma concentration (Cmax) ([8]; after a 25-mg dose): 200 ng/mL
- Reduction of Cmax by antacids ([8]; antacids): 20%
- Reduction of extent of absorption by antacids ([8]; antacids): 10-15%
- Increase in bioavailability in elderly patients ([8]; elderly patients (>65 yrs) compared to young subjects): 34%
- Cd ([8]; in vivo): 90 L
- Dose excreted unchanged in the urine ([8]; in vivo): < 1%
- Oral bioavailability ([8]; in vivo, po): > 90%
- Accumulation factor ([8]; repeated administration): 1.67
- Cssmax ([8]; steady state, 25 mg qday): 320 ng/mL
